PMC2824119 (Cancer Chemotherapy and Pharmacology, 2010)

Tests used:
CYP3A4/5 = details: hepatocytes
CYP2E1 = CYP2E1 (Homo sapiens, UniProt P05181); assay: CYP2E1 inhibition in human liver microsomes; format: in vitro ADME
CYP1A2 [1] = target: T1, CYP1A2 (Homo sapiens, UniProt P05177); details: azacitidine at 70 μM or lower concentrations
T1 sequence (P05177 1-516): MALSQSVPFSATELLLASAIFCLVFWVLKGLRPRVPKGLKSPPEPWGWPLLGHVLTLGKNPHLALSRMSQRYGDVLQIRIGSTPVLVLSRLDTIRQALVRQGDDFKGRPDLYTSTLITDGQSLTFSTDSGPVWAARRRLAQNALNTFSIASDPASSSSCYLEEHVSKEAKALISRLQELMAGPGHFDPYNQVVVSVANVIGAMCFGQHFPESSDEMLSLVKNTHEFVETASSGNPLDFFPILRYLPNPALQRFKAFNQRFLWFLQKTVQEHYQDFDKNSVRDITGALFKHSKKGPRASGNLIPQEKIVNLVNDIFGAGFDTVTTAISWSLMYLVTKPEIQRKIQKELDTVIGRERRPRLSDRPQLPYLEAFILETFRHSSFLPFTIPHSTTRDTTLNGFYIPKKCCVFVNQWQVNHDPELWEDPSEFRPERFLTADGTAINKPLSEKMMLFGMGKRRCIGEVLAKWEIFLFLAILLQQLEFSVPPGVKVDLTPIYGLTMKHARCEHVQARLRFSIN

CYP1A2 [2] = test system: CYP1A2

Sequence of CYP2E1 (P05181 whole entry): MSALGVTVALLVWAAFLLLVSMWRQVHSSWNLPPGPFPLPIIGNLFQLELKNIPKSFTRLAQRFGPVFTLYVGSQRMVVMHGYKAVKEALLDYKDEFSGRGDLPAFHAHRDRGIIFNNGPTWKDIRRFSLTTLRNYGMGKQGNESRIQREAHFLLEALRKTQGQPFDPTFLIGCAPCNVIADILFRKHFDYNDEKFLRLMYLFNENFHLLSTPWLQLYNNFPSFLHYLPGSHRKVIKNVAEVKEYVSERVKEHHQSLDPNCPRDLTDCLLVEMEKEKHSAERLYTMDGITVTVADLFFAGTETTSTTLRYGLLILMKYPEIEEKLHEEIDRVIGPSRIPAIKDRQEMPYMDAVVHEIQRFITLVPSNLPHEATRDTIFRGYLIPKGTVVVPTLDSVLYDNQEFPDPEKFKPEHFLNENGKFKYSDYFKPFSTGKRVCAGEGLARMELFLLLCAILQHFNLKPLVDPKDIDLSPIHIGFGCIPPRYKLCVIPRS

Nc1ncn([C@@H]2O[C@H](CO)[C@@H](O)[C@H]2O)c(=O)n1 [Azacitidine]
Induction of CYP3A4/5 activity (CYP3A4/5): did not induce | Decrease of CYP3A4/5-catalyzed testosterone 6β-hydroxylation (CYP3A4/5; human): 78% | Inhibition of CYP2E1 (CYP2E1; azacitidine at 70 μM or lower concentrations): no inhibition | Percent inhibition (CYP2E1; azacitidine at 100 μM, chlorzoxazone 40 μM, HLM 0.8 mg/mL): < 30% | Inhibition of CYP1A2 (CYP1A2 [1]): no inhibition | Decrease of CYP1A2-mediated 7-ethoxyresorufin O-dealkylation (CYP1A2 [2]; azacitidine 100 μM, not statistically significant): 29% | Induction of CYP1A2 activity (CYP1A2 [2]; clinically relevant concentrations, once daily for three consecutive days): did not induce
